Test results from article PMC11341654 (2024).

Legend:
[1] = UV irradiation in solution; conditions: cited from earlier work
[2] = protonated peptides irradiated in the gas phase; VUV or soft X-ray photon, carbon ions; conditions: cited from earlier work
[3] = gas phase; photoabsorption in the VUV as well as X-ray photon energy range (30 to 545 eV); conditions: cited from earlier work
[4] = isolated peptide ions in the gas phase (ion trap), UV photoabsorption at 220 nm; conditions: up to 100–500 ms
[5] = deprotonated peptide anions in the gas phase, UV photoabsorption at 220 nm (ion trap); conditions: up to 100–500 ms

| Substance | cleaved bond [1] | cleaved bond [2] | cleaved bond [3] | cleaved bond [4] | cleaved bond [5] |
| --- | --- | --- | --- | --- | --- |
| (POG)10 | Gly-Pro, major | Gly-Pro, major |  |  |  |
| PGGPPGPKGNSGEPGAPGSKGDTGAK |  |  | Gly-Pro, major | Gly-Pro, major and Pro-Pro and Glu-Pro and Ala-Pro and Asp-Thr and K-G | G-P and P-P and E-P and A-P |
| (PPG)10 | Gly-Pro, major | Gly-Pro, major |  |  |  |
